Measured values: ChEMBL document CHEMBL5137026, “Novel deuterated Mnk1/2 protein degrader VNLG-152R analogs: Synthesis, In vitro Anti-TNBC activities and pharmacokinetics in mice” (Eur J Med Chem, 2022)
Each block holds one compound with its values, some of them ahead of it.

Assays:
[1] = tested on: MDA-MB-231; assay: Antiproliferative activity against human MDA-MB-231 cells measured after 6 days by MTT assay; assay type: functional; conditions: MDA-MB-231, 144 h, time 6 day
[2] = tested on: MDA-MB-468; assay: Antiproliferative activity against human MDA-MB-468 cells measured after 6 days by MTT assay; assay type: functional; conditions: MDA-MB-468, 144 h, time 6 day
[3] = Cmax in po dosed CD-1 mouse by LC/MS/MS analysis; assay type: ADME, organism-based; parameters: route po; conditions: in vivo
[4] = Tmax in po dosed CD-1 mouse by LC/MS/MS analysis; assay type: ADME, organism-based; conditions: in vivo
[5] = Half life in po dosed CD-1 mouse by LC/MS/MS analysis; assay type: ADME, organism-based; conditions: in vivo
[6] = AUC in po dosed CD-1 mouse by LC/MS/MS analysis; assay type: ADME, organism-based; parameters: route po; conditions: in vivo
[7] = MRT in po dosed CD-1 mouse by LC/MS/MS analysis; assay type: ADME, organism-based; conditions: in vivo
[8] = tested on: MDA-MB-231; assay: Induction of apoptosis in human MDA-MB-231 cells assessed as downregulation of […] measured after 24 hrs by SDS PAGE based Western blotting analysis; assay type: functional, cell-based
[9] = tested on: MDA-MB-468; assay: Induction of apoptosis in human MDA-MB-468 cells assessed as downregulation of […] measured after 24 hrs by SDS PAGE based Western blotting analysis; assay type: functional, cell-based
[10] = tested on: MDA-MB-231; assay: Induction of apoptosis in human MDA-MB-231 cells assessed as downregulation of Bcl-2 measured after 24 hrs by SDS PAGE based Western blotting analysis; assay type: functional, cell-based
[11] = tested on: MDA-MB-468; assay: Induction of apoptosis in human MDA-MB-468 cells assessed as downregulation of Bcl-2 measured after 24 hrs by SDS PAGE based Western blotting analysis; assay type: functional, cell-based
[12] = tested on: MDA-MB-231; assay: Induction of apoptosis in human MDA-MB-231 cells assessed as upregulation of Bax measured after 24 hrs by SDS PAGE based Western blotting analysis; assay type: functional, cell-based
[13] = tested on: MDA-MB-468; assay: Induction of apoptosis in human MDA-MB-468 cells assessed as upregulation of Bax measured after 24 hrs by SDS PAGE based Western blotting analysis; assay type: functional, cell-based
[14] = tested on: MDA-MB-231; assay: Downregulation of Mnk1 in human MDA-MB-231 cells measured after 24 hrs by SDS PAGE based Western blotting analysis; assay type: functional, cell-based
[15] = tested on: MDA-MB-231; assay: Downregulation of PeIF4E in human MDA-MB-231 cells measured after 24 hrs by SDS PAGE based Western blotting analysis; assay type: functional, cell-based
[16] = tested on: MDA-MB-231; assay: Antiproliferative activity against human MDA-MB-231 cells measured after 24 hrs by MTT assay; assay type: functional
[17] = dose 5-20 µM, DDE = dose-dependent effect
[18] = dose 5-20 µM, tested as the 2H-labelled form, DDE = dose-dependent effect
[19] = dose 5-20 µM, DDE = dose-dependent effect, tested as the 2H-labelled form

Compound: [2H]c1nc([2H])n(C2([2H])CCC(C)(C)C(/C=C/C(C)=C/C=C/C(C)=C/C(=O)Nc3c([2H])c([2H])c(F)c([2H])c3[2H])=C2C)c1[2H] (racemic)
GI50 [1]: 710 nM
GI50 [2]: 290 nM
Cmax [3]: 1620 ng/mL
Tmax [4]: 160 min
half-life [5]: 617 min
AUC [6]: 22600 ng·h/mL
MRT [7]: 8.92 h

Compound: [2H]c1nc([2H])n(C2CCC(C)(C)C(/C=C/C(C)=C/C=C/C(C)=C/C(=O)Nc3c([2H])c([2H])c(F)c([2H])c3[2H])=C2C)c1[2H] (racemic)
GI50 [1]: 620 nM
GI50 [2]: 250 nM
Cmax [3]: 455 ng/mL
Tmax [4]: 49.8 min
half-life [5]: 260 min
AUC [6]: 2060 ng·h/mL
MRT [7]: 2.89 h

Compound: CC1=C(/C=C/C(C)=C/C=C/C(C)=C/C(=O)Nc2ccc(F)cc2)C(C)(C)CCC1n1ccnc1 (racemic; form 1) [listing 2 of 2 here]
Activity [8, 17]: Dde
Activity [9, 17]: Dde
Activity [10, 17]: Dde
Activity [11, 17]: Dde
Activity [12, 17]: Dde
Activity [13, 17]: Dde
Activity [14, 17]: Dde
Activity [15, 17]: Dde

Compound: CC1=C(/C=C/C(C)=C/C=C/C(C)=C/C(=O)Nc2ccc(F)cc2)C(C)(C)CCC1n1ccnc1 (racemic; form 2)
Activity [8, 18]: Dde
Activity [9, 19]: Dde
Activity [10, 19]: Dde
Activity [11, 18]: Dde
Activity [12, 18]: Dde
Activity [13, 18]: Dde
Activity [14, 18]: Dde
Activity [15, 18]: Dde

Compound: CC1=C(/C=C/C(C)=C/C=C/C(C)=C/C(=O)Nc2ccc(F)cc2)C(C)(C)CCC1n1ccnc1 (racemic; form 3)
Activity [8, 19]: Dde
Activity [9, 18]: Dde
Activity [10, 19]: Dde
Activity [11, 18]: Dde
Activity [12, 19]: Dde
Activity [13, 18]: Dde
Activity [14, 19]: Dde
Activity [15, 19]: Dde

Compound: CC1=C(/C=C/C(C)=C/C=C/C(C)=C/C(=O)Nc2ccc(F)cc2)C(C)(C)CCC1n1ccnc1 (racemic; form 4)
Activity [8, 19]: Dde
Activity [9, 18]: Dde
Activity [10, 19]: Dde
Activity [11, 18]: Dde
Activity [12, 18]: Dde
Activity [13, 19]: Dde
Activity [14, 19]: Dde
Activity [15, 19]: Dde

Compound: CC1=C(/C=C/C(C)=C/C=C/C(C)=C/C(=O)Nc2ccc(F)cc2)C(C)(C)CCC1n1ccnc1 (racemic; form 5)
Activity [8, 18]: Dde
Activity [9, 18]: Dde
Activity [10, 18]: Dde
Activity [11, 19]: Dde
Activity [12, 18]: Dde
Activity [13, 19]: Dde
Activity [14, 18]: Dde
Activity [15, 18]: Dde

Compound: CC1=C(/C=C/C(C)=C/C=C/C(C)=C/C(=O)Nc2ccc(F)cc2)C(C)(C)CCC1n1ccnc1 (racemic; form 6)
Activity [8, 18]: Dde
Activity [9, 19]: Dde
Activity [10, 18]: Dde
Activity [11, 18]: Dde
Activity [12, 19]: Dde
Activity [13, 18]: Dde
Activity [14, 18]: Dde
Activity [15, 18]: Dde

Compound: CC1=C(/C=C/C(C)=C/C=C/C(C)=C/C(=O)Nc2ccc(F)cc2)C(C)(C)CCC1n1ccnc1 (racemic; form 7)
Activity [8, 18]: Dde
Activity [9, 19]: Dde
Activity [10, 19]: Dde
Activity [11, 19]: Dde
Activity [12, 18]: Dde
Activity [13, 19]: Dde
Activity [14, 18]: Dde
Activity [15, 18]: Dde

Compound: CC1=C(/C=C/C(C)=C/C=C/C(C)=C/C(=O)Nc2ccc(F)cc2)C(C)(C)CCC1n1ccnc1 (racemic; form 8)
Activity [8, 19]: Dde
Activity [9, 19]: Dde
Activity [10, 19]: Dde
Activity [11, 18]: Dde
Activity [12, 18]: Dde
Activity [13, 19]: Dde
Activity [14, 19]: Dde
Activity [15, 18]: Dde

Second part, the compound after the results:

GI50 [1]: 830 nM
GI50 [2]: 270 nM
Cmax [3]: 501 ng/mL
Tmax [4]: 40.2 min
half-life [5]: 256 min
AUC [6]: 2700 ng·h/mL
MRT [7]: 5.49 h
Compound: [2H]c1nc([2H])n(C2([2H])CCC(C)(C)C(/C=C/C(C)=C/C=C/C(C)=C/C(=O)Nc3ccc(F)cc3)=C2C)c1[2H] (racemic)

GI50 [1]: 770 nM
GI50 [2]: 270 nM
Cmax [3]: 273 ng/mL
Tmax [4]: 49.8 min
half-life [5]: 294 min
AUC [6]: 1730 ng·h/mL
MRT [7]: 4.63 h
Compound: [2H]c1c([2H])c(NC(=O)/C=C(C)/C=C/C=C(C)/C=C/C2=C(C)C(n3ccnc3)CCC2(C)C)c([2H])c([2H])c1F (racemic)

GI50 [1]: 710 nM
GI50 [2]: 280 nM
Cmax [3]: 151 ng/mL
Tmax [4]: 79.8 min
half-life [5]: 503 min
AUC [6]: 1740 ng·h/mL
MRT [7]: 3.57 h
Compound: [2H]c1nc([2H])n(C2CCC(C)(C)C(/C=C/C(C)=C/C=C/C(C)=C/C(=O)Nc3ccc(F)cc3)=C2C)c1[2H] (racemic)

GI50 [1]: 860 nM
GI50 [2]: 190 nM
Cmax [3]: 1030 ng/mL
Tmax [4]: 150 min
half-life [5]: 723 min
AUC [6]: 17600 ng·h/mL
MRT [7]: 9.06 h
Compound: [2H]C1(n2ccnc2)CCC(C)(C)C(/C=C/C(C)=C/C=C/C(C)=C/C(=O)Nc2ccc(F)cc2)=C1C (racemic)

GI50 [1]: 620 nM
GI50 [2]: 270 nM
Cmax [3]: 1360 ng/mL
Tmax [4]: 45 min
half-life [5]: 612 min
AUC [6]: 15500 ng·h/mL
MRT [7]: 8.48 h
Compound: [2H]c1c([2H])c(NC(=O)/C=C(C)/C=C/C=C(C)/C=C/C2=C(C)C([2H])(n3ccnc3)CCC2(C)C)c([2H])c([2H])c1F (racemic)

GI50 [1]: 830 nM
GI50 [2]: 400 nM
Cmax [3]: 4650 ng/mL
Tmax [4]: 49.8 min
half-life [5]: 217 min
AUC [6]: 22800 ng·h/mL
MRT [7]: 3.02 h
Compound: CC1=C(/C=C/C(C)=C/C=C/C(C)=C/C(=O)Nc2ccc(F)cc2)C(C)(C)CCC1n1ccnc1 (racemic; form 1) [listing 1 of 2 here]

GI50 [1]: 220 nM
GI50 [2]: 100 nM
GI50 [16]: 300 nM
Compound: CC(=O)O[C@H]1C(=O)[C@@]2(C)[C@H]([C@H](OC(=O)c3ccccc3)[C@]3(O)C[C@H](OC(=O)[C@H](O)[C@@H](NC(=O)c4ccccc4)c4ccccc4)C(C)=C1C3(C)C)[C@]1(OC(C)=O)CO[C@@H]1C[C@@H]2O [PACLITAXEL]
